Data taken from ChEMBL document CHEMBL1201862, “PubChem BioAssay data set” (2004).
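Compound exposure: 48 hours, 5 concentrations, 96-well plates. GI50 = concentration required for 50% inhibition of growth.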 Active and inactive are the calls of the source. Rule as the data show it: active = GI50 up to about 1.1 µM and inactive = higher.

How the values were obtained:
Assay in all cases: inhibition of tumour cell growth, NCI panel, 48 h
[1] = test system: Hs-578T
[2] = test system: RXF 393
[3] = test system: BT-549
[4] = test system: SK-MEL-2
[5] = test system: RPMI-8226
[6] = test system: SN12C
[7] = test system: PC-3
[8] = test system: MDA-N
[9] = test system: UACC-257
[10] = test system: OVCAR-3
[11] = test system: SW-620
[12] = test system: OVCAR-4
[13] = test system: SNB-19
[14] = test system: HL-60
[15] = test system: CCRF-CEM
[16] = test system: HOP-62
[17] = test system: OVCAR-5
[18] = test system: U-251
[19] = test system: SR
[20] = test system: NCI-H23
[21] = test system: IGROV-1
[22] = test system: MCF7
[23] = test system: KM12
[24] = test system: MDA-MB-435
[25] = test system: K562
[26] = test system: HOP-92
[27] = test system: UACC-62
[28] = test system: SF-539
[29] = test system: M14
[30] = test system: LOX IMVI
[31] = test system: NCI-H226
[32] = test system: HT-29
[33] = test system: MDA-MB-231
[34] = test system: HCT-15
[35] = test system: NCI/ADR-RES
[36] = test system: DU-145
[37] = test system: SNB-75
[38] = test system: A549
[39] = test system: Malme-3M
[40] = test system: HCC 2998
[41] = test system: UO-31
[42] = test system: OVCAR-8
[43] = test system: 786-0
[44] = test system: SK-MEL-28
[45] = test system: COLO 205
[46] = test system: SK-MEL-5
[47] = test system: NCI-H522
[48] = test system: NCI-H460
[49] = test system: MOLT-4
[50] = test system: HCT-116
[51] = test system: EKVX
[52] = test system: CAKI-1
[53] = test system: T47D
[54] = test system: ACHN
[55] = test system: SK-OV-3
[56] = test system: TK-10
[57] = test system: SF-295

OCC1NC(CO)C(O)C1O (stereo not drawn)
GI50 [1]: > 100 µM (inactive) | GI50 [2]: > 100 µM (inactive) | GI50 [3]: > 100 µM (inactive) | GI50 [4]: > 100 µM (inactive) | GI50 [5]: > 100 µM (inactive) | GI50 [6]: > 10 µM (inactive) | GI50 [7]: > 100 µM (inactive) | GI50 [8]: > 100 µM (inactive) | GI50 [9]: > 100 µM (inactive) | GI50 [10]: > 100 µM (inactive) | GI50 [11]: > 100 µM (inactive) | GI50 [12]: > 100 µM (inactive) | GI50 [13]: > 100 µM (inactive) | GI50 [14]: > 100 µM (inactive) | GI50 [15]: > 100 µM (inactive) | GI50 [16]: > 100 µM (inactive) | GI50 [17]: > 100 µM (inactive) | GI50 [18]: > 100 µM (inactive) | GI50 [19]: > 100 µM (inactive)

CNc1nc(=O)c(C#N)c(-c2ccc(C)cc2)s1
GI50 [2]: > 100 µM (inactive) | GI50 [3]: > 100 µM (inactive) | GI50 [20]: > 100 µM (inactive) | GI50 [21]: > 100 µM (inactive) | GI50 [22]: > 100 µM (inactive) | GI50 [23]: > 100 µM (inactive) | GI50 [24]: > 100 µM (inactive) | GI50 [25]: > 100 µM (inactive) | GI50 [4]: > 100 µM (inactive) | GI50 [6]: > 100 µM (inactive) | GI50 [26]: > 100 µM (inactive) | GI50 [27]: > 100 µM (inactive) | GI50 [28]: > 100 µM (inactive) | GI50 [29]: > 100 µM (inactive) | GI50 [30]: > 100 µM (inactive) | GI50 [31]: > 100 µM (inactive) | GI50 [32]: > 100 µM (inactive) | GI50 [7]: > 100 µM (inactive) | GI50 [33]: > 100 µM (inactive) | GI50 [34]: > 100 µM | GI50 [35]: > 100 µM (inactive) | GI50 [36]: > 100 µM (inactive) | GI50 [37]: > 100 µM (inactive) | GI50 [38]: > 100 µM (inactive) | GI50 [8]: > 100 µM (inactive) | GI50 [9]: > 100 µM (inactive) | GI50 [39]: > 100 µM (inactive) | GI50 [40]: > 100 µM (inactive) | GI50 [41]: > 100 µM (inactive) | GI50 [42]: > 100 µM (inactive) | GI50 [43]: > 100 µM (inactive) | GI50 [10]: > 100 µM (inactive) | GI50 [11]: > 100 µM (inactive) | GI50 [12]: > 100 µM (inactive) | GI50 [44]: > 100 µM (inactive) | GI50 [45]: > 100 µM (inactive) | GI50 [13]: > 100 µM (inactive) | GI50 [46]: > 100 µM (inactive) | GI50 [14]: 53.7 µM (inactive) | GI50 [47]: 59.3 µM (inactive) | GI50 [15]: > 100 µM (inactive) | GI50 [48]: > 100 µM (inactive) | GI50 [49]: > 100 µM (inactive) | GI50 [17]: > 100 µM (inactive) | GI50 [50]: > 100 µM (inactive) | GI50 [51]: 67.6 µM (inactive) | GI50 [52]: 35.6 µM (inactive) | GI50 [53]: > 100 µM (inactive) | GI50 [18]: > 100 µM (inactive) | GI50 [54]: > 100 µM (inactive) | GI50 [55]: > 100 µM (inactive) | GI50 [19]: > 100 µM (inactive) | GI50 [56]: > 100 µM (inactive) | GI50 [57]: > 100 µM (inactive)
